Here are results for eleven molecules from US6936602B1, “Benzazepine derivatives, process for the preparation of the same and uses thereof” (Takeda Chemical Industries, Ltd., priority 1999, dated 2005).

What is called melting point is the temperature, or range, at which the solid turns liquid. The molecule `CCCCOCCOc1ccc(-c2ccc3c(c2)C=C(C(=O)Nc2ccc(CN(C)C4CCOCC4)cc2)CCN3Cc2ccc(OC)cc2)cc1` [Compound 56, 7-(4-butoxyethoxyphenyl)-1-(4-methoxybenzyl)-N-[4-[[N-methyl-N-(tetrahydropyran-4-yl)amino]methyl]phenyl]-2,3-dihydro-1-benzazepine-4-carboxamide] showed a melting point of 151 to 152 °C. In the case of `CCCOCCOc1ccc(-c2ccc3c(c2)C=C(C(=O)Nc2ccc(CN(C)C4CCOCC4)cc2)CCN3Cc2ccsc2)cc1` [Compound 57, N-[4-[[N-methyl-N-(tetrahydropyran-4-yl)amino]methyl]phenyl]-7-(4-propoxyethoxyphenyl)-1-(3-thienylmethyl)-2,3-dihydro-1-benzazepine-4-carboxamide] it was 131.5 to 132.5 °C. In the case of `CCCOCCOc1ccc(-c2ccc3c(c2)C=C(C(=O)Nc2ccc(CN(C)C4CCOCC4)cc2)CCN3Cc2cccs2)cc1` [Compound 59, N-[4-[[N-methyl-N-(tetrahydropyran-4-yl)amino]methyl]phenyl]-7-(4-propoxyethoxyphenyl)-1-(2-thienylmethyl)-2,3-dihydro-1-benzazepine-4-carboxamide] it was 104.5 to 105.5 °C; in that of `CCCCOCCOc1ccc(-c2ccc3c(c2)C=C(C(=O)Nc2ccc(CN(C)C4CCOCC4)cc2)CCN3Cc2cccs2)cc1` [Compound 60, 7-(4-butoxyethoxyphenyl)-N-[4-[[N-methyl-N-(tetrahydropyran-4-yl)amino]methyl]phenyl]-1-(2-thienylmethyl)-2,3-dihydro-1-benzazepine-4-carboxamide], 84 to 85 °C. For `CCCOCCOc1ccc(-c2ccc3c(c2)C=C(C(=O)Nc2ccc(CN(C)C4CCOCC4)cc2)CCN3Cc2ccoc2)cc1` [Compound 61, 1-(3-furylmethyl)-N-[4-[[N-methyl-N-(tetrahydropyran-4-yl)amino]methyl]phenyl]-7-(4-propoxyethoxyphenyl)-2,3-dihydro-1-benzazepine-4-carboxamide] the value was 115 to 116 °C. As for `CCCCOCCOc1ccc(-c2ccc3c(c2)C=C(C(=O)Nc2ccc(CN(C)C4CCOCC4)cc2)CCN3Cc2ccoc2)cc1` [Compound 62, 7-(4-butoxyethoxyphenyl)-1-(3-furylmethyl)-N-[4-[[N-methyl-N-(tetrahydropyran-4-yl)amino]methyl]phenyl]-2,3-dihydro-1-benzazepine-4-carboxamide], the melting point fell in the range of 116 to 117 °C.

`CCCCOCCOc1ccc(-c2ccc3c(c2)C=C(C(=O)Nc2ccc(CN(C)C4CCOCC4)cc2)CCN3Cc2ccccc2OCC)cc1` [Compound 63, 7-(4-butoxyethoxyphenyl)-1-(2-ethoxybenzyl)-N-[4-[[N-methyl-N-(tetrahydropyran-4-yl)amino]methyl]phenyl]-2,3-dihydro-1-benzazepine-4-carboxamide] displayed a melting point of 104.5 to 105.5 °C. In the case of `CCCCOCCOc1ccc(-c2ccc3c(c2)C=C(C(=O)Nc2ccc(CN(C)C4CCOCC4)cc2)CCN3Cc2cccc(OCCC)c2)cc1` [Compound 64, 7-(4-butoxyethoxyphenyl)-N-[4-[[N-methyl-N-(tetrahydropyran-4-yl)amino]methyl]phenyl]-1-(3-propoxybenzyl)-2,3-dihydro-1-benzazepine-4-carboxamide] it was 114.5 to 115.5 °C; in that of `CCCCOCCOc1ccc(-c2ccc3c(c2)C=C(C(=O)Nc2ccc(CN(C)C4CCOCC4)cc2)CCN3Cc2cc(OC)ccc2OC)cc1` [Compound 65, 7-(4-butoxyethoxyphenyl)-1-(2,5-dimethoxybenzyl)-N-[4-[[N-methyl-N-(tetrahydropyran-4-yl)amino]methyl]phenyl]-2,3-dihydro-1-benzazepine-4-carboxamide], 143 to 144 °C. In the case of `CC#CCN1CCC(C(=O)Nc2ccc(CN(C)C3CCOCC3)cc2)=Cc2cc(-c3ccc(OCCOCCCC)cc3)ccc21` [Compound 95, 7-[4-(2-butoxyethoxy)phenyl]-1-(2-butynyl)-N-[4-[N-methyl-N-(tetrahydropyran-4-yl)aminomethyl]phenyl]-2,3-dihydro-1-benzazepine-4-carboxamide] it was 129 to 131 °C. Molecule `CCCOCCOc1ccc(-c2ccc3c(c2)C=C(C(=O)Nc2ccc(CN(C)C4CCOCC4)cc2)CCN3CCCOC)cc1` [Compound 103, 1-(3-methoxypropyl)-N-[4-[[N-methyl-N-(tetrahydropyran-4-yl)amino]methyl]phenyl]-7-[4-(2-propoxyethoxy)phenyl]-2,3-dihydro-1H-1-benzazepine-4-carboxamide] showed a melting point of 87 to 90 °C.
